Publication PMC12525431, “Hsp70 Peptides Induce TREM-1-Dependent and TREM-1-Independent Activation of Cytotoxic Lymphocytes” (International Journal of Molecular Sciences, 2025)
Entries after “also recorded” stand apart in the source; their conditions may differ. Like-named read-outs stand apart in the source and are kept apart here. Ends that are not written are not given here.

Experiments:
[1] = test system: CD94 receptor; test: Interaction with CD94 receptor (judged from PBMC cytotoxicity); assay type: cell-based, human; conditions: concluded from cytotoxicity experiments
Description: (§1) Human leukemic cell line K562 and THP-1 cell line were cultured in RPMI-1640 (Himedia Laboratories Private Limited, Maharashtra, India) and 10% FCS (Cytiva Livescience™, Marlborough, MA, USA). This cell line was obtained from the cell line collection of N. N. Blokhin National Medical Research Center of Oncology of the Ministry of Health of Russia. […] The cells were sorted using sets of magnetic beads for isolation of CD14+, CD16+, CD56+, CD8+, and CD4+ according to the manufacturer’s protocol (all were produced by Thermo Fisher Scientific, Waltham, MA, USA).
For cytotoxicity tests, cells of the K562 line were cultured in 96-well plates (Guangzhou Jet Bio-Filtration Co., Guangzhou, China) (6 × 10^4 per well) mixed with lymphocytes added at a 20:1 ratio and incubated at 37 °C in a 5% CO2 atmosphere for 3 to 24 h). […]
(§2) Cytotoxicity was measured using a Cytotox 96 analysis kit (Promega, Madison, WI, USA) after 24 h of incubation in accordance with the manufacturer’s protocol.

[2] = test system: K562 cells; test: Cytotoxicity of activated PBMC/lymphocytes against K562 cells (Cytotox 96); assay type: cell-based, human
Description: as §1
(§3) For cytotoxicity tests, cells of the K562 line were cultured in 96-well plates (Guangzhou Jet Bio-Filtration Co., Guangzhou, China) (6 × 10^4 per well) mixed with lymphocytes added at a 20:1 ratio and incubated at 37 °C in a 5% CO2 atmosphere for 3 to 24 h). In the inhibition assays, cells were pre-incubated for 1 h with the LP17 ([…]) (Thermo Fisher Scientific, Boston, MA, USA), abTREM1 (ABclonal, Woburn, MA, USA), anti-NKG2D, anti-granzyme B, caspase 3 inhibitor Ac-IEID-CHO, RIP1 kinase inhibitor necrostatin1, TLR4 inhibitor, anti-MicA, anti-FasL, anti-CD94 antibody (concentration was 20 μg/mL for all inhibitors and all from Thermo Fisher Scientific, Waltham, MA, USA) and then the lymphocytes were added.
as §2

[3] = target: T1, TREM-1 (Homo sapiens, UniProt Q9NP99); test: Interaction with / dependence on TREM-1 (judged from cytotoxicity blocking and binding experiments); assay type: cell-based; conditions: for effect on interaction of TREM-1 with its ligands: ligands N7 peptide, HMGB1, full-length Hsp70, judged from PBMC cytotoxicity
T1 construct: causes dissociation of the TREM-1 exocellular domain; made in house
Description: as §1, §3, §2

[4] = target: T1, TREM-1; conditions: cited from earlier work
[5] = target: T1, TREM-1; test: Microscale thermophoresis, binding to TREM-1; conditions: sTREM-1 labeled with Alexa Fluor 488, 30 min in the dark at room temperature, 16 concentrations by sequential dilution, Monolith NT 115, 8% IR laser power, at least three replicates
Description: The purified sTREM-1 protein was labeled using an Alexa FluorTM 488 Protein Labeling Kit (Life Technologies Corporation, Eugene, OR, USA) in accordance with the manufacturer’s protocol.
The N7 peptide and TKD (C = 200 nM for all) were incubated for 30 min in the dark at room temperature in 16 different concentrations obtained through sequential dilution, starting with the highest soluble concentration. The samples were transferred to glass capillaries (Monolith NT Capillaries, NanoTemper Technologies GmbH, München, Germany) and then analyzed using a Nano-Temperature Monolith NT 115 device (8% IR laser power). The signal quality was monitored using a NanoTemper Monolith device to detect possible autofluorescence of the ligand, aggregation, or changes in the photobleaching rate. The experiments were carried out in at least three replicates and processed using affinity analysis software (MO Control v.1.6.1, NanoTemper Technologies GmbH, München, Germany).

[6] = test system: HLA-negative tumor cells; conditions: cited from earlier work
[7] = test system: ICR mice; test: LPS-induced sepsis in mice, survival; assay type: in vivo; conditions: N7.1 120 µg per mouse i.v. 1 h after LPS
Description: Female ICR mice weighing 25 ± 1.1 g (7-week-old) were obtained from the Animal Breeding Facility of IBCh RAS (Bioresource Collection supported by the Ministry of Science and Higher Education of the Russian Federation, contract No. 075-15-2025-486). During the experiment, all mice were maintained in a specific pathogen-free (SPF) state under a strict light cycle (lights on at 07:00 h and off at 19:00 h), at 22 ± 2 °C and 50 ± 10% relative humidity. Animals were provided ad libitum access to a standard laboratory autoclavable rodent diet.
Twenty-one mice were used for the present study. The animals were randomly assigned to three groups with seven animals in each group: (1) control, intact animals; (2) intravenous injection of physiological saline (100 μL 0.9% NaCl) as a placebo during LPS-induced sepsis; (3) intravenous injection of peptide N7.1 (120 µg in 100 µL saline per mouse) during LPS-induced sepsis. LPS-induced sepsis was stimulated by an intraperitoneal injection of 0.6 mg lipopolysaccharides from Salmonella enterica Serotype Typhimurium (Sigma-Aldrich Co., St. Louis, MO, USA). Due to the small fluctuation in animal weight, weight-based dosing of LPS was not used. Drug treatment (saline or peptide N7.1) was carried out 1 h after LPS-induced sepsis.

[8] = 4th day of PBMC incubation with N7, magnetic separation, K562, n = 5
[9] = 6th day of PBMC incubation with N7, magnetic separation, K562, n = 5

T1 sequence (Q9NP99 21-205 limits assumed): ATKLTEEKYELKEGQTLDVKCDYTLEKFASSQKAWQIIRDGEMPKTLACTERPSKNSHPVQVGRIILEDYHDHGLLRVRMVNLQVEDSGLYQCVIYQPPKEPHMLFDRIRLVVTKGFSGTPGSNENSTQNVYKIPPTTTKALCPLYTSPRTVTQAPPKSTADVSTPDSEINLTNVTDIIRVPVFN

In the case of “AMTKDNNLLGR [N9, 11-membered peptide from fraction No. 9; can be considered as a shortened TKD peptide]”, the “interaction with CD94 receptor” value [1] is reported as “interact with the CD94 receptor”, the lymphocyte populations activated ([2]; human PBMC ex vivo with peptide, K562 target cells) is reported as “activates CD94+ NK cells” and the “interaction with TREM-1” value ([3]; concluded from LP17 blocking and binding experiments) is reported as “does not interact with the TREM-1 receptor”.

In the case of “LQVTDSGLYRCVIYHPP [LP17, reference compound]”, the TREM-1 signaling inhibition ([4]; ref [24]) is listed as “TREM-1 signaling inhibitor”.

With SDNQPGVLIQVYEGEK [N7] the “cytotoxic activity of CD4+ T lymphocytes” value [2, 8] was “activated”, the “cytotoxic activity of CD8+ T lymphocytes” value [2, 8] was “No traces of cytotoxic activity” and the “cytotoxic activity of NK cells” value [2, 8] was “reached their maximum activity”. The “cytotoxic activity of CD4+ T lymphocytes” value [2, 9] was “remained”, the “cytotoxic activity of CD8+ T lymphocytes” value [2, 9] was “appeared” and the “cytotoxic activity of NK cells” value [2, 9] was “completely disappeared”. The “induction of cytotoxic lymphocytes” value ([2]; PBMC 6 days with synthetic peptide (10^−9 M), MHC-negative K562 cells 24 h, n = 5) was “cytotoxic lymphocytes appear in the population, killing MHC-negative K562 tumor cells”.

In the case of “PGLYRP1: innate immunity protein PGLYRP1, TREM-1 ligand”, the TREM-1 ligand ([4]; ref [30],[31],[32],[33]) is listed as “TREM-1 ligands”.

In the case of “Ac-IEID-aldehyde [caspase 3 inhibitor, reference compound]”, the “effect of inhibitor on activity of NK cells” value ([2]; NK cells activated by N7, inhibitor pre-incubated 1 h (20 μg/mL), K562, n = 5) is reported as “blocked”.

For `CC(C)C[C@H](NC(=O)[C@H](CC(C)C)NC(=O)[C@H](CC(N)=O)NC(=O)[C@H](CC(N)=O)NC(=O)[C@H](CC(=O)O)NC(=O)[C@H](CCCCN)NC(=O)[C@@H](N)[C@@H](C)O)C(=O)NCC(=O)N[C@@H](CCCNC(=N)N)C(=O)N[C@@H](Cc1ccccc1)C(=O)N[C@@H](CCC(=O)O)C(=O)N[C@@H](CC(C)C)C(=O)N[C@@H](CO)C(=O)NCC(=O)O` [TKD], the Kd [5] was 3 µM.

In the case of “Hsp70: recombinant human Hsp70, expressed in Escherichia coli M15”, the “activation of cytotoxic lymphocytes” value [6] is listed as “activates TREM-1-dependent and TREM-1-independent cytotoxic lymphocytes that kill HLA-negative tumor cells” and the TREM-1 ligand ([4]; ref [19]) is listed as “ligand of the TREM-1 innate immunity receptor”.

In the case of “SDNQPGVL [N7.1, N-terminal fragment of N7 peptide]”, the “effect on lymphocyte activation by TREM-1 ligands” value ([2]; PBMC pre-incubated with shortened peptide, then N7 peptide, HMGB1 or Hsp70 for 6 days, K562 24 h) is reported as “blocks the activation of lymphocytes by all the ligands studied”, the “effect in development of sepsis” value ([7]; LPS-induced sepsis in mice) is reported as “protective effects in the development of sepsis in mice” and the “surviving animals (survival rate)” value ([7]; female ICR mice, n = 7, 0.6 mg S. enterica LPS i.p., observed to 120 h, saline 29%) is reported as 86%. For the same molecule, the “effect on interaction of TREM-1 with its ligands” value [3] was “inhibits the interaction of TREM-1 with its ligands; also recorded: prevent interaction of the TREM-1 receptor with its ligands in vitro” and the “effect on interaction of TREM-1 with its ligands” value ([3]; listed as SDNQPGVL) was “competes with other ligands”.

For actin, the TREM-1 ligand ([4]; ref [30],[31],[32],[33]) is listed as “TREM-1 ligands”.

In the case of `CN1C(=O)C(Cc2c[nH]c3ccccc23)NC1=S` (centres unmarked) [inhibitor of RIP1 kinase, necrostatin1, reference compound], the “effect of inhibitor on cytotoxic signal” value ([2]; CD8+ and CD4+ T lymphocytes activated by N7, 6 days, inhibitor pre-incubated 1 h (20 μg/mL), K562 3 or 24 h, n = 5) is reported as “prevent the induction of cytotoxic signal”.
